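Grown in 96-well plates, cells were treated for 48 hours with each compound at five concentrations. Insufficient inhibition: endpoint recorded as highest concentration tested. GI50 = concentration required for 50% inhibition of growth.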 Calls of active or inactive are those of the source. No stated cut-off is given here; in the data, active = GI50 up to about 1.1 µM and inactive = higher.
What was measured:
Test in all cases: DTP human tumour cell line panel, 48 h
SNB-19 = system: SNB-19
OVCAR-4 = system: OVCAR-4
HCT-116 = system: HCT-116
SF-539 = system: SF-539
HOP-62 = system: HOP-62
SN12C = system: SN12C
OVCAR-3 = system: OVCAR-3
ACHN = system: ACHN
BT-549 = system: BT-549
CCRF-CEM = system: CCRF-CEM
MDA-MB-231 = system: MDA-MB-231
Malme-3M = system: Malme-3M
NCI/ADR-RES = system: NCI/ADR-RES
COLO 205 = system: COLO 205
U-251 = system: U-251
SF-295 = system: SF-295
EKVX = system: EKVX
SF-268 = system: SF-268
HL-60 = system: HL-60
RXF 393 = system: RXF 393

Measured: GI50

OC(Cc1ccc2ccccc2n1)(C(F)(F)Cl)C(F)(F)Cl
inactive: SNB-19 > 10 µM | OVCAR-4 > 10 µM | HCT-116 > 10 µM | SF-539 > 10 µM | HOP-62 > 10 µM | SN12C > 10 µM | OVCAR-3 > 10 µM | ACHN > 10 µM | BT-549 > 10 µM | CCRF-CEM > 10 µM | MDA-MB-231 > 10 µM | Malme-3M > 10 µM | NCI/ADR-RES > 10 µM | COLO 205 > 10 µM | U-251 > 10 µM | SF-295 > 10 µM | EKVX > 10 µM | SF-268 > 10 µM

O=C(O)c1cccc(S(=O)(=O)NN2C(=O)CSC2c2c(O)ccc3ccccc23)c1 (stereo not given)
inactive: SNB-19 26.4 µM | OVCAR-4 28.9 µM | HCT-116 19.6 µM | SF-539 22.2 µM | HOP-62 47 µM | SN12C 36.9 µM | OVCAR-3 20.6 µM | ACHN 34.1 µM | HL-60 28 µM | RXF 393 45 µM | CCRF-CEM 16 µM | MDA-MB-231 26.8 µM | Malme-3M 26.5 µM | NCI/ADR-RES 22.1 µM | COLO 205 38 µM | U-251 34.3 µM | SF-295 29.3 µM | EKVX 45.8 µM | SF-268 32.5 µM

CC1=C(C(=O)Nc2ccccc2C)C(c2ccc(C3C(C(=O)Nc4ccccc4C)=C(C)NC(C)=C3C(=O)Nc3ccccc3C)cc2)C(C(=O)Nc2ccccc2C)=C(C)N1
inactive: SNB-19 11.9 µM | OVCAR-4 8.99 µM | HCT-116 2.21 µM | SF-539 4.44 µM | HOP-62 21.1 µM | SN12C 1.71 µM | OVCAR-3 6.67 µM | ACHN 4.52 µM | HL-60 2.53 µM | BT-549 2.75 µM | RXF 393 4.31 µM | CCRF-CEM 1.95 µM | MDA-MB-231 2.29 µM | Malme-3M 2.19 µM | COLO 205 3.7 µM | U-251 2.25 µM | SF-295 4.57 µM | EKVX 7.31 µM | SF-268 2.58 µM

CCOC(=O)c1ccc(Nc2nc3ccc(C(F)(F)F)cc3nc2-c2ccccc2)cc1
inactive: SNB-19 > 100 µM | HCT-116 84.9 µM | SF-539 > 100 µM | HOP-62 80 µM | SN12C 74.8 µM | OVCAR-3 > 100 µM | ACHN > 100 µM | HL-60 61.1 µM | RXF 393 97.3 µM | CCRF-CEM 63.4 µM | Malme-3M > 100 µM | NCI/ADR-RES > 100 µM | U-251 53 µM | SF-295 56.8 µM | EKVX > 100 µM | SF-268 > 100 µM

CC(=O)c1sc2[n+](c1C)C(=O)/C(=C\c1ccccc1Cl)S2
inactive: SNB-19 20.3 µM | OVCAR-4 29.2 µM | HCT-116 20.7 µM | SF-539 21.8 µM | HOP-62 22.8 µM | SN12C 34.2 µM | OVCAR-3 18 µM | ACHN 20.5 µM | HL-60 20.7 µM | RXF 393 26.1 µM | CCRF-CEM 27.6 µM | MDA-MB-231 25.4 µM | Malme-3M 17.5 µM | NCI/ADR-RES 21 µM | COLO 205 14.9 µM | U-251 16.6 µM | SF-295 16 µM | EKVX 26.8 µM | SF-268 23.2 µM

CC(C)(C)c1ccnc(/N=C2\N/C(=N\c3cc(C(C)(C)C)ccn3)c3ccccc32)c1
inactive: SNB-19 22.2 µM | OVCAR-4 > 100 µM | HCT-116 14.6 µM | SF-539 67.1 µM | HOP-62 31.6 µM | SN12C > 100 µM | OVCAR-3 17.8 µM | ACHN > 100 µM | HL-60 36.3 µM | RXF 393 22.3 µM | CCRF-CEM 59.4 µM | Malme-3M 24.8 µM | COLO 205 > 100 µM | U-251 26.1 µM | SF-295 23.4 µM | EKVX 57.9 µM | SF-268 16.3 µM

NC(=O)C(=O)Cc1nc2ccccc2s1
inactive: SNB-19 > 100 µM | OVCAR-4 > 100 µM | HCT-116 > 100 µM | SF-539 > 100 µM | HOP-62 > 100 µM | SN12C > 100 µM | OVCAR-3 > 100 µM | ACHN > 100 µM | HL-60 > 100 µM | RXF 393 > 100 µM | CCRF-CEM > 100 µM | Malme-3M > 100 µM | COLO 205 > 100 µM | U-251 > 100 µM | SF-295 > 100 µM | EKVX > 100 µM | SF-268 > 100 µM

Reference: ChEMBL document CHEMBL1201862, “PubChem BioAssay data set” (2004)
